# From patent US9012655B2, “Antimicrobial/adjuvant compounds and methods” (Denouamed, Inc., priority 2011, dated 2015)
# Columns and labels:
# Assay in all cases: MIC panel of challenge pathogens (CLSI)
# Format in all cases: cell-based
# [1] = system: Bacillus cereus NCTC6349; conditions: Bacillus cereus NCTC6349
# In short: (§1)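 Broth microdilution per CLSI guidelines. Final inoculum 2-8×10^5 CFU/ml, compounds serially two-fold diluted from 128 mg/L top concentration. Incubated in the dark at 30-37° C for 24-48 h, aerobic or anaerobic as appropriate. MIC read visually as 100% inhibition endpoint; MIC50 and MIC80 also reported.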
# [2] = system: Enterococcus faecalis ATCC29212; conditions: Enterococcus faecalis ATCC29212
# In short: as §1
# [3] = system: Enterococcus faecalis ATCC51299; conditions: Enterococcus faecalis ATCC51299
# In short: as §1
# [4] = system: Enterococcus faecium ATCC700221; conditions: Enterococcus faecium ATCC700221
# In short: as §1
# [5] = system: Staphylococcus aureus ATCC43300; conditions: Staphylococcus aureus ATCC43300
# In short: as §1
# [6] = system: Staphylococcus aureus AUR131 007035; conditions: Staphylococcus aureus AUR131 007035
# In short: as §1
# [7] = system: Staphylococcus aureus AUR58 7005; conditions: Staphylococcus aureus AUR58 7005
# In short: as §1
# [8] = system: Staphylococcus aureus AUR59 7005; conditions: Staphylococcus aureus AUR59 7005
# In short: as §1
# [9] = system: Staphylococcus aureus AUR60 7005; conditions: Staphylococcus aureus AUR60 7005
# In short: as §1
# [10] = system: Staphylococcus aureus EUP MRSA002; conditions: Staphylococcus aureus EUP MRSA002
# In short: as §1
# [11] = system: Staphylococcus aureus EUP MRSA004; conditions: Staphylococcus aureus EUP MRSA004
# In short: as §1
# [12] = system: Staphylococcus aureus EUP SAU040; conditions: Staphylococcus aureus EUP SAU040
# In short: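 CLSI broth microdilution; inoculum 2-8×10^5 CFU/ml; 2-fold series, top 128 mg/L; 30-37° C, 24-48 h, dark; visual read, 100% inhibition endpoint.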
# [13] = system: Staphylococcus aureus NRS1 (ATCC700699); conditions: Staphylococcus aureus NRS1 (ATCC700699)
# In short: as §1
# [14] = system: Staphylococcus aureus NRS2 (ATCC700698); conditions: Staphylococcus aureus NRS2 (ATCC700698)
# In short: as §1
# [15] = system: Staphylococcus aureus NRS382; conditions: Staphylococcus aureus NRS382
# In short: as §1
# [16] = system: Staphylococcus aureus NRS383; conditions: Staphylococcus aureus NRS383
# In short: as §1
# [17] = system: Staphylococcus aureus NRS384; conditions: Staphylococcus aureus NRS384
# In short: as §1
# [18] = system: Staphylococcus epidermidis NRS122; conditions: Staphylococcus epidermidis NRS122
# In short: as §1
# [19] = system: Staphylococcus epidermidis NRS7; conditions: Staphylococcus epidermidis NRS7
# In short: as §1
smiles,measurement,setting,value
Cc1ccc(-c2cc(-c3nn[nH]n3)cc(-c3ccccc3-c3ccccc3)c2)c2ccccc12 [DNM0474],100% inhibition,[1],≦0.25 μg/mL
same,MIC50 (50%),[1],≦0.25 μg/mL
same,MIC80 (80%),[1],≦0.25 μg/mL
same,100% inhibition,[2],1 µg/mL
same,MIC50 (50%),[2],1 µg/mL
same,MIC80 (80%),[2],1 µg/mL
same,100% inhibition,[3],1 µg/mL
same,MIC50 (50%),[3],1 µg/mL
same,MIC80 (80%),[3],1 µg/mL
same,100% inhibition,[4],1 µg/mL
same,MIC50 (50%),[4],1 µg/mL
same,MIC80 (80%),[4],1 µg/mL
same,100% inhibition,[5],0.5 µg/mL
same,MIC50 (50%),[5],0.5 µg/mL
same,MIC80 (80%),[5],0.5 µg/mL
same,100% inhibition,[6],0.5 µg/mL
same,MIC50 (50%),[6],0.5 µg/mL
same,MIC80 (80%),[6],0.5 µg/mL
same,100% inhibition,[7],1 µg/mL
same,MIC50 (50%),[7],0.5 µg/mL
same,MIC80 (80%),[7],1 µg/mL
same,100% inhibition,[8],0.5 µg/mL
same,MIC50 (50%),[8],0.5 µg/mL
same,MIC80 (80%),[8],0.5 µg/mL
same,100% inhibition,[9],0.5 µg/mL
same,MIC50 (50%),[9],0.5 µg/mL
same,MIC80 (80%),[9],0.5 µg/mL
same,100% inhibition,[10],1 µg/mL
same,MIC50 (50%),[10],1 µg/mL
same,MIC80 (80%),[10],1 µg/mL
same,100% inhibition,[11],0.5 µg/mL
same,MIC50 (50%),[11],0.5 µg/mL
same,MIC80 (80%),[11],0.5 µg/mL
same,100% inhibition,[12],0.25 µg/mL
same,MIC50 (50%),[12],0.5 µg/mL
same,MIC80 (80%),[12],0.5 µg/mL
same,100% inhibition,[13],0.5 µg/mL
same,MIC50 (50%),[13],0.25 µg/mL
same,MIC80 (80%),[13],0.5 µg/mL
same,100% inhibition,[14],0.5 µg/mL
same,MIC50 (50%),[14],0.5 µg/mL
same,MIC80 (80%),[14],0.5 µg/mL
same,100% inhibition,[15],0.5 µg/mL
same,MIC50 (50%),[15],0.5 µg/mL
same,MIC80 (80%),[15],0.5 µg/mL
same,100% inhibition,[16],0.5 µg/mL
same,MIC50 (50%),[16],0.5 µg/mL
same,MIC80 (80%),[16],0.5 µg/mL
same,100% inhibition,[17],0.5 µg/mL
same,MIC50 (50%),[17],0.5 µg/mL
same,MIC80 (80%),[17],0.5 µg/mL
same,100% inhibition,[18],16 µg/mL
same,MIC50 (50%),[18],4 µg/mL
same,MIC80 (80%),[18],8 µg/mL
same,100% inhibition,[19],1 µg/mL
same,MIC50 (50%),[19],0.5 µg/mL
same,MIC80 (80%),[19],1 µg/mL
